From US5210193A, “Piperazine derivatives” (American Cyanamid Company, priority 1990, dated 1993)
Values after ≈ are worked out from the molar mass of the structure shown. Read-outs that look alike come from different tables or passages of the source.

Columns and labels:
Assay in all cases: in vitro antibacterial MIC, agar plate dilution
Format in all cases: cell-based
[1] = system: Enterobacter cloacae K 84-10; conditions: Enterobacter cloacae, K8410, 18 h, 35° C., read-out: MIC
Summary of the method: (§1)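 MIC, mcg/ml: lowest concentration with no visible growth after 18 h incubation at 35° C. Mueller-Hinton agar dilution plates; ~10^4 CFU inoculum via Steers replicating device.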

[2] = system: Escherichia coli CMC 84-11; conditions: Escherichia coli, CMC8411, 18 h, 35° C., read-out: MIC
Summary of the method: as §1

[3] = system: Escherichia coli CMC 84-50; conditions: Escherichia coli, CMC8450, 18 h, 35° C., read-out: MIC
Summary of the method: as §1

[4] = system: Escherichia coli LL 311; conditions: Escherichia coli, LL311, 18 h, 35° C., read-out: MIC
Summary of the method: as §1

[5] = system: Escherichia coli MOR 84-20; conditions: Escherichia coli, MOR8420, 18 h, 35° C., read-out: MIC
Summary of the method: as §1

[6] = system: Escherichia coli VGH 84-19; conditions: Escherichia coli, VGH8419, 18 h, 35° C., read-out: MIC
Summary of the method: as §1

[7] = system: Klebsiella pneumoniae CMC 84-31; conditions: Klebsiella pneumoniae, CMC8431, 18 h, 35° C., read-out: MIC
Summary of the method: as §1

[8] = system: Klebsiella pneumoniae IO 83-5; conditions: Klebsiella pneumoniae, IO835, 18 h, 35° C., read-out: MIC
Summary of the method: as §1

[9] = system: Klebsiella pneumoniae MOR 84-24; conditions: Klebsiella pneumoniae, MOR8424, 18 h, 35° C., read-out: MIC
Summary of the method: as §1

[10] = system: Morganella morganii CMC 84-37; conditions: 35° C.
Summary of the method: as §1

[11] = system: Morganella morganii CMC 84-38; conditions: 35° C.
Summary of the method: as §1

[12] = system: Morganella morganii MOR 84-45; conditions: Morganella morganii, MOR8445, 18 h, 35° C., read-out: MIC
Summary of the method: as §1

[13] = system: Proteus rettgeri CMC 84-41; conditions: Providencia rettgeri, CMC8441, 18 h, 35° C., read-out: MIC
Summary of the method: as §1

[14] = system: Proteus rettgeri IO 83-21; conditions: Providencia rettgeri, IO8321, 18 h, 35° C., read-out: MIC
Summary of the method: as §1

[15] = system: Providencia stuarti CMC 83-3; conditions: Providencia, CMC833, 18 h, 35° C., read-out: MIC
Summary of the method: as §1

[16] = system: Pseudomonas aeruginosa K 84-16; conditions: Pseudomonas aeruginosa, K8416, 18 h, 35° C., read-out: MIC
Summary of the method: as §1

[17] = system: Pseudomonas aeruginosa LL-1244; conditions: Pseudomonas aeruginosa, LL1244, 18 h, 35° C., read-out: MIC
Summary of the method: as §1

[18] = system: Pseudomonas aeruginosa VGH 84-3; conditions: Pseudomonas aeruginosa, VGH843, 18 h, 35° C., read-out: MIC
Summary of the method: as §1

[19] = system: Serratia marcescens CMC 83-74; conditions: Serratia marcescens, CMC8374, 18 h, 35° C., read-out: MIC
Summary of the method: as §1

[20] = system: Serratia marcescens IO 83-63; conditions: IO8363, 18 hours, 35° C.
Summary of the method: as §1

[21] = system: Serratia marcescens MOR 84-41; conditions: Serratia marcescens, MOR8441, 18 h, 35° C., read-out: MIC
Summary of the method: as §1

[22] = system: Serratia marcescens VGH 84-30; conditions: Serratia marcescens, VGH8430, 18 h, 35° C., read-out: MIC
Summary of the method: as §1

[23] = system: Staphylococcus aureus ATTC 29213; conditions: 35° C.
Summary of the method: as §1

[24] = system: Staphylococcus aureus K 82-26; conditions: Staphylococcus aureus, K8226, 18 h, 35° C., read-out: MIC
Summary of the method: as §1

[25] = system: Staphylococcus aureus Smith; conditions: 35° C.
Summary of the method: as §1

[26] = system: Staphylococcus aureus VGH 84-45; conditions: 35° C.
Summary of the method: as §1

[27] = system: Staphylococcus aureus VGH 84-47; conditions: Staphylococcus aureus, VGH8447, 18 h, 35° C., read-out: MIC
Summary of the method: as §1

[28] = system: Streptococcus faecalis UCI 85-19; conditions: Enterococcus faecalis, UCI8519, 18 h, 35° C., read-out: MIC
Summary of the method: as §1

[29] = system: Streptococcus faecalis UCI 85-30; conditions: Enterococcus faecalis, UCI8530, 18 h, 35° C., read-out: MIC
Summary of the method: as §1

[30] = system: Streptococcus faecalis VGH 84-65; conditions: Enterococcus faecalis, VGH8465, 18 h, 35° C., read-out: MIC
Summary of the method: as §1

[31] = system: Streptococcus faecalis VGH 84-69; conditions: Enterococcus faecalis, VGH8469, 18 h, 35° C., read-out: MIC
Summary of the method: as §1

[32] = system: Enterobacter cloacae MOR 84-30; conditions: 35° C.
Summary of the method: as §1

[33] = Morganella morganii, CMC8438, 18 h, read-out: MIC
[34] = Staphylococcus aureus, ATTC29213, 18 h, read-out: MIC
[35] = Staphylococcus aureus, 18 h, read-out: MIC
[36] = Staphylococcus aureus, VGH8445, 18 h, read-out: MIC

| MIC [2] [µg/mL] | MIC [3] [µg/mL] | MIC [5] [µg/mL] | MIC [6] [µg/mL] | MIC [7] [µg/mL] | MIC [8] [µg/mL] | MIC [9] [µg/mL] | MIC [12] [µg/mL] | MIC [13] [µg/mL] | MIC [14] [µg/mL] | MIC [15] [µg/mL] | MIC [16] [µg/mL] | MIC [18] [µg/mL] | MIC [19] [µg/mL] | MIC [21] [µg/mL] | MIC [24] [µg/mL] | MIC [27] [µg/mL] | MIC [29] [µg/mL] | MIC [31] [µg/mL] | SMILES | MIC [1] [µg/mL] | further results |
| --- | --- | --- | --- | --- | --- | --- | --- | --- | --- | --- | --- | --- | --- | --- | --- | --- | --- | --- | --- | --- | --- |
| 2 (≈ 5.05 µM) | 4 (≈ 10.1 µM) | 2 (≈ 5.05 µM) | 2 (≈ 5.05 µM) | 4 (≈ 10.1 µM) | 8 (≈ 20.2 µM) | 8 (≈ 20.2 µM) | 2 (≈ 5.05 µM) | 2 (≈ 5.05 µM) | 8 (≈ 20.2 µM) | > 16 | > 16 | > 16 | > 16 | 8 (≈ 20.2 µM) | 16 (≈ 40.4 µM) | 2 (≈ 5.05 µM) | > 16 | 16 (≈ 40.4 µM) | CCn1cc(C(=O)O)c(=O)c2cc(F)c(N3CCNC(c4ccncc4)C3)cc21 (stereo not drawn) [Example 123] | 2 (≈ 5.05 µM) | MIC ([32]; Enterobacter cloacae, MOR8430, 18 h, read-out: MIC): > 16 µg/mL; MIC [4]: 1 µg/mL (≈ 2.52 µM); MIC [11, 33]: 2 µg/mL (≈ 5.05 µM); MIC [17]: 64 µg/mL (≈ 161 µM); MIC [22]: 64 µg/mL (≈ 161 µM); MIC ([23]; 18 hours): 1 µg/mL (≈ 2.52 µM); MIC [23, 34]: 0.5 µg/mL (≈ 1.26 µM); MIC [25, 35]: 0.5 µg/mL (≈ 1.26 µM); MIC [26, 36]: 0.5 µg/mL (≈ 1.26 µM); MIC [28]: 8 µg/mL (≈ 20.2 µM); MIC [30]: 8 µg/mL (≈ 20.2 µM) |
| 0.03 (≈ 0.0755 µM) | 0.12 (≈ 0.302 µM) | 0.06 (≈ 0.151 µM) | 0.06 (≈ 0.151 µM) | 0.12 (≈ 0.302 µM) | 0.25 (≈ 0.629 µM) | 0.25 (≈ 0.629 µM) | 0.12 (≈ 0.302 µM) | 0.06 (≈ 0.151 µM) | 0.25 (≈ 0.629 µM) | 16 (≈ 40.3 µM) | 8 (≈ 20.1 µM) | > 16 | 16 (≈ 40.3 µM) | 0.5 (≈ 1.26 µM) | 0.06 (≈ 0.151 µM) | 0.03 (≈ 0.0755 µM) | 1 (≈ 2.52 µM) | 0.5 (≈ 1.26 µM) | O=C(O)c1cn(C2CC2)c2cc(N3CCNC(c4ccco4)C3)c(F)cc2c1=O (stereo not drawn) [Example 62, 1-Cyclopropyl-6-fluoro-7-[3-(2-furanvl)-1-piperazinyl]-1,4-dihydro-4-oxo-3-quinolinecarboxylic acid] |  | MIC ([32]; 18 hours): 1 µg/mL (≈ 2.52 µM); MIC ([10]; 18 hours): 0.06 µg/mL (≈ 0.151 µM); MIC ([11]; 18 hours): 0.25 µg/mL (≈ 0.629 µM); MIC [20]: 1 µg/mL (≈ 2.52 µM); MIC ([25]; 18 hours): 0.015 µg/mL (≈ 0.0377 µM); MIC ([26]; 18 hours): 0.015 µg/mL (≈ 0.0377 µM) |

| SMILES | MIC [2] [µg/mL] | MIC [3] [µg/mL] | MIC [5] [µg/mL] | MIC [6] [µg/mL] | MIC [7] [µg/mL] | MIC [8] [µg/mL] | MIC [9] [µg/mL] | MIC [12] [µg/mL] | MIC [13] [µg/mL] | MIC [14] [µg/mL] | MIC [15] [µg/mL] | MIC [16] [µg/mL] | MIC [18] [µg/mL] | MIC [19] [µg/mL] | MIC [21] [µg/mL] | MIC [24] [µg/mL] | MIC [27] [µg/mL] | MIC [29] [µg/mL] | MIC [31] [µg/mL] | MIC [1] [µg/mL] | further results |
| --- | --- | --- | --- | --- | --- | --- | --- | --- | --- | --- | --- | --- | --- | --- | --- | --- | --- | --- | --- | --- | --- |
| O=C(O)c1cn(C2CC2)c2cc(N3CCNC(CF)C3)c(F)cc2c1=O (stereo not drawn) [Example 131, 1-Cyclopropyl-6-fluoro-7-[3-(fluoromethyl)-1-piperazinyl]-1,4-dihydro-4-oxo-3-quinolinecarboxylic acid] | 0.015 (≈ 0.0413 µM) | 0.06 (≈ 0.165 µM) | 0.03 (≈ 0.0826 µM) | 0.03 (≈ 0.0826 µM) | 0.06 (≈ 0.165 µM) | 0.12 (≈ 0.33 µM) | 0.12 (≈ 0.33 µM) | 0.12 (≈ 0.33 µM) | 0.06 (≈ 0.165 µM) | 0.12 (≈ 0.33 µM) | 16 (≈ 44 µM) | 1 (≈ 2.75 µM) | 8 (≈ 22 µM) | 4 (≈ 11 µM) | 0.12 (≈ 0.33 µM) | 0.5 (≈ 1.38 µM) | 0.25 (≈ 0.688 µM) | 2 (≈ 5.5 µM) | 1 (≈ 2.75 µM) | 0.03 (≈ 0.0826 µM) | MIC [4]: 0.015 µg/mL (≈ 0.0413 µM); MIC ([10]; Morganella morganii, CMC8437, 18 h, read-out: MIC): 0.5 µg/mL (≈ 1.38 µM); MIC [11, 33]: 0.06 µg/mL (≈ 0.165 µM); MIC [17]: 2 µg/mL (≈ 5.5 µM); MIC [20]: 0.5 µg/mL (≈ 1.38 µM); MIC [22]: 2 µg/mL (≈ 5.5 µM); MIC [23, 34]: 0.5 µg/mL (≈ 1.38 µM); MIC [25, 35]: 0.06 µg/mL (≈ 0.165 µM); MIC [26, 36]: 0.25 µg/mL (≈ 0.688 µM); MIC [28]: 2 µg/mL (≈ 5.5 µM); MIC [30]: 1 µg/mL (≈ 2.75 µM) |
